Experimental data: US20260231848A1, “A METHOD OF TREATING SEEDS AND SEEDS PRODUCED THEREBY” (RESEARCH FOUNDATION OF THE CITY UNIVERSITY OF NEW YORK, priority 2023, published 2026)

Key:
[1] = Dissolution of the compounds for the stock solution; type: physicochemical; conditions: stock solution of 100 mM; visible observation
Method: In order to select the optimum concentration of NOSH and NOSH-ASA, a concentration gradient was performed. To achieve the gradient, a stock solution of 100 mM was prepared. […] Therefore, it was decided to prepare a stock solution using 100% DMSO and then dilute the composition to 0.1% DMSO.

[2] = test system: Arabidopsis thaliana seeds (ecotype Col-0); assay: Seed treatment at pre-germination stage, plant growth (rosette fresh weight, projected rosette area); type: in vivo; conditions: for concentration resulting in highest increase in fresh weight: screening at concentration gradient 0-100 μM, rosettes 22 DAS, seeds soaked 12 hrs
Method: Stock solutions of NOSH or NOSH-ASA were each prepared by initial dissolution in 100% DMSO. From each stock solution, treatment compositions at a 0-100 μM concentration gradient (diluted in 0.1% v/v DMSO) were prepared. Arabidopsis thaliana seeds (ecotype Col-0) were treated at their pre-germination stage with different concentrations of NOSH or NOSH-aspirin solutions (0-100 μM concentration gradient) by soaking the seeds in Petri dishes at room temperature and in the dark. After 12 hrs, the seeds were air dried for 2-3 hrs. Four seeds per pot were sown in soil medium and stratified at 4° C. for 4 days to achieve germination uniformity. Then the pots were transferred to the growth room and allowed to grow under controlled conditions of 22° C., and a 16-hr day (100-120 μmol m^−2 s^−1)/8-hr night regime for 22 days (d). Nine Days After Stratification (DAS), one seedling, which had the projected rosette area closest to the median area of the treatment, was selected from the four seedlings sown per pot. Four independent experiments were carried out using a minimum of 6-8 independent plants as replicates per experiment. Projected Rosette Area (PRA) was determined by taking pictures of the rosettes 22 days after stratification (DAS). The pictures were subsequently analyzed using ImageJ software (http://rsb.info.nih.gov/ij/) to measure the size of each plant. Represented rosette sizes were calculated by taking the average of the individual plant per repeat and then per treatment. The same rosettes were used also for fresh weight measurements. In this connection it is noted that in preliminary experiments no substantial differences between the ratio of fresh weight and the ratio of dry weight under optimum soil water content was observed. Statistical analysis was performed with SAS (Version 9.4 of the SAS System for windows 7 64 bit by using the mixed model analysis. Copyright C 2002-2012 SAS Institute Inc. Cary, NC, USA (www.sas.com). Seeds were treated by seed soaking for 12 hr with NOSH at 50 μM. Four seeds were then sown in soil medium within a pot and allowed to grow for 22 days under the conditions described above.

[3] = test system: baby spinach cultivars (Sunangel RZ, Scarne F1PV-1656); assay: Baby spinach seed priming, growth under heat stress; type: in vivo; conditions: day 37-40° C., 50 μM seed priming 12 hours
Method: NOSH-A was initially prepared in a stock solution of 50 mM using DMSO. The working solution was made by diluting the stock in water to reach a final concentration of 50 μM in 0.1% DMSO. Seed priming was performed by soaking the seeds of two baby spinach cultivars (Sunangel RZ, Scarne F1PV-1656) in NOSH-A solution for 12 hours at 25° C. Then the seeds were placed in gauze under the laminar flow for air-drying, till reaching their initial weight. Seeds were sown in the soil in a commercial greenhouse (FIG. 6a), and let to grow until day 30. Average day temperature ranged between 37-40° C., while night temperature ranged between 21-23° C. Growing plants were watered three times per week. All agronomic analyses were carried out using a minimum of nine independent plants per treatment, while survival percentage was calculated from a total of 300 plants per treatment.

[4] = test system: tomato seeds (4 different varieties); assay: Tomato seed priming under salt stress conditions; type: in vivo; conditions: for fruit yield per plant: 50 μM in 0.1% DMSO, seeds soaked 12 hours, vs untreated, hydroprimed, solvent-treated seeds
Method: A experiment has been carried out, whereby the effect of NOSH-A pre-treatment of tomato seeds was examined under salt stress conditions. The treatments were as follows: • Untreated tomato seeds (4 different varieties—CV1-4) • Hydroprimed seeds (soaked in dH2O) • NOSH-A control treated seeds (soaked in 0.1% DMSO) • NOSH-A primed seeds NOSH-A was initially prepared in a stock solution of 50 mM using DMSO. The working solution was made by diluting the stock in water to reach a final concentration of 50 μM in 0.1% DMSO. Seed priming was performed by soaking the seeds in NOSH-A solution for 12 hours at 25° C. Then the seeds were placed in gauze under the laminar flow for air-drying, till reaching their initial weight. The seeds were sown in plastic seedling trays (1 seed per pot) filled with sterile soil, covered with a transparent film, and let to germinate in a growth chamber room under certain conditions of 24/20° C. day/night temperatures, 60-70% RH, with a photosynthetic photon flux density of 120 μmol m^2 s^−1 and a 16/8-h photoperiod. At day 7 after sowing, seedlings were transplanted into square plastic pots filled with sterilized pot soil, transferred into a glasshouse, and let to grow until day 24. Growing plants were watered three times per week. Plants were then watered with saline solution (7.8-12.0 dS/m), while controls were watered with dH2O, until fruiting. A total of four harvests were carried out, with yield data being the total of the four harvesting events. All analyses were carried out using six independent plants per treatment.

[5] = test system: plants from treated seeds; assay: Stress protection: seed priming by vacuum infiltration, plants left un-watered (drought); type: in vivo
Method: Seeds were treated with a NOSH composition comprising 30% methanol and the priming application method was vacuum infiltration (90 sec). […] Plants were growth on optimum condition until 37 days and then were left un-watered for 7 days. Observation on plant phenotype was performed and interesting differences on the plant appearance were recorded. […] This supported the conclusion that NOSH compounds enhance plant tolerance, (probably, however, without being bound to this hypothesis, by avoiding the accumulation of stress-related pigments such as anthocyanin).

[6] = test system: Arabidopsis thaliana seeds (ecotype Col-0); assay: Leaf 3 area and epidermal cell analysis of plants from treated seeds; type: in vivo; conditions: 50 μM at seed level, carrier 0.1% DMSO
Method: For the leaf area analysis, 3rd true leaves were harvested from all the replicates and then the leaves were cleared in 100% ethanol, mounted in lactic acid on microscope slides, and photographed. Leaf areas were measured with the ImageJ software (http://rsb.info.nih.gov//ij/). Abaxial epidermal cells were drawn with a DMLB microscope (Leica) fitted with a drawing tube and a differential interference contrast objective. Drawings were scanned and analyzed using automated image analysis algorithms (Andriankaja et al. 2012). Subsequently, drawings were used to measure average cell size, from which the total pavement cell number was calculated. The stomatal index was defined as the percentage of stomata in relation to the number of epidermal cells. Statistical analysis was performed with SAS (Version 9.4 of the SAS System for windows 7 64 bit by using the mixed model analysis. Copyright C 2002-2012 SAS Institute Inc. Cary, NC, USA (www.sas.com). Finally, the ratio of leaf 3 area, pavement cell area, pavement cell number and stomata index measured on plants treated at seed level with 50 μM NOSH compared with plants received from carrier-treated seeds (seeds treated with 0.1% DMSO) were determined, the results of which is provided in FIG. 4 (values are averages of three biological repeats, with each repeat consisting of 6-8 plants).

[7] = control and high salinity conditions, 50 μM seed priming

dissolution directly in 0.1% DMSO [1]	seed germination after soaking ([5]; NOSH composition comprising 30% methanol, soaking 4 h, 12 h and 24 h, attributed to high percentage of methanol)	SMILES	concentration resulting in highest increase in fresh weight [2]	average leaf area [3]	total plant leaf area [3]	survival percentage of plants ([3]; vs untreated, hydroprimed, solvent-treated seeds)	fruit dry weight [4, 7]	fruit fresh weight [4, 7]	fruit yield per plant ([4]; control conditions)	fruit yield per plant ([4]; high salinity conditions (7.8-12.0 dS/m))	growth of the leaves ([2]; 50 μM, seeds soaked 12 hr, 22 DAS, vs no NOSH treatment)	fresh weight of rosettes, ratio to carrier-treated seeds ([2]; 50 μM, seeds soaked 12 hr, 22 days, p value 0.0001)	projected rosette area (PRA) ratio, treated seeds vs carrier-treated seeds ([2]; seeds exposed before germination, carrier 0.1% DMSO)	promoting growth following treatment at the seed level ([2]; treatment of seeds before germination)	plant phenotype / tolerance after drought ([5]; composition with 30% methanol, vacuum infiltration 90 sec, un-watered 7 days after 37 days, vs carrier-treated drought plants)	leaf 3 area, ratio to carrier-treated seeds [6]	pavement cell area, ratio to carrier-treated seeds [6]	pavement cell number, ratio to carrier-treated seeds [6]	stomata index, ratio to carrier-treated seeds [6]
did not completely dissolve		O=C(CCCO[N+](=O)[O-])Oc1ccccc1C(=O)Oc1ccc(-c2cc(=S)ss2)cc1 [NOSH-ASA]	10 µM	significant improvements	significant improvements	clear improvement	significant improvements	significant improvements	significant improvement	significant improvement									
did not completely dissolve	no seed germination	O=C(CCCO[N+](=O)[O-])Oc1ccc(-c2cc(=S)ss2)cc1 [NOSH]	50 µM								increased growth of the leaves	statistically significant (p values indicated in the Figures) increase	> 1.5 fold	more effective in promoting growth as compared to NOSH-NSAID	greener and with less anthocyanin on the leaves	statistically significant (p values indicated in the Figures) increase	statistically significant (p values indicated in the Figures) increase	statistically significant (p values indicated in the Figures) increase	statistically significant (p values indicated in the Figures) increase
